Results reported in patent US20250163104A1, “MACROCYCLIC IMMUNOMODULATORS” (priority 2021, published 2025).
Where a SMILES comes first, the peptide text is derived from it. Bridges are numbered along the chain shown (N, C = ends). [ ]: non-standard residue; d: D form. The star is where a group is joined. Phe(4-COOH) = N[C@@H](Cc1ccc(C(=O)O)cc1)C(=O)O; Bip = N[C@@H](Cc1ccc(-c2ccccc2)cc1)C(=O)O; Phe(3-Me) = Cc1cccc(C[C@H](N)C(=O)O)c1; 4Pal = N[C@@H](Cc1ccncc1)C(=O)O; Cha = N[C@@H](CC1CCCCC1)C(=O)O; dCha = N[C@H](CC1CCCCC1)C(=O)O; Carboxymethyl = O=C(O)C*; Orn = NCCC[C@H](N)C(=O)O; Dab = NCC[C@H](N)C(=O)O; Dap = NC[C@H](N)C(=O)O

Each compound was assayed against T1, human PD-1 / PD-L1-Ig binding on Jurkat cell line over-expressing human PD-1 (Jurkat-PD-1) (Homo sapiens, UniProt Q15116) (assay: Jurkat-PD-1 Cell Binding High-Content Screening Assay (CBA)). Conditions: Jurkat-PD-1 cells, PE-labeled PD-L1-Ig 20 nM final; read-out: Jurkat HPD1_PDL1 IC50.
T1 construct: expressed in transfected cells; host or cells: Jurkat
Format: cell-based
In short: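 Cell-bound PE-labeled PD-L1-Ig (20 nM final, 1 h) measured by high-content imaging after fixation and Hoechst 33342 counterstain. Compound was applied first for 2 h at 37° C. to Jurkat cells over-expressing human PD-1 in DMEM with 10% FCS.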

T1 sequence (Q15116 25-288): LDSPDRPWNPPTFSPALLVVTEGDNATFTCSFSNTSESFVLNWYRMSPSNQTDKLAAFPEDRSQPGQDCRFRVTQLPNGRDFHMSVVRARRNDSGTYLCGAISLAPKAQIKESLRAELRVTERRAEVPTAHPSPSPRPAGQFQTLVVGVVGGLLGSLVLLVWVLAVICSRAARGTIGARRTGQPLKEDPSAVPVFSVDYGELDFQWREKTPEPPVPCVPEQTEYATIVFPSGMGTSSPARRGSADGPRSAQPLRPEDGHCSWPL

Q: How did the IC50 turn out when `CC(C)[C@@H]1NC(=O)[C@H](Cc2c[nH]c3ccccc23)NC(=O)[C@H](CC(=O)O)NC(=O)[C@H](Cc2ccncc2)NC(=O)[C@H](Cc2ccc(OCC(=O)O)cc2)NC(=O)CSC[C@@H](C(=O)N[C@@H](C)C(N)=O)NC(=O)[C@H]([C@@H](C)O)NC(=O)[C@H](C(C)C)NC(=O)[C@H](CC2CCCCC2)NC(=O)[C@H](CCN)NC(=O)[C@@H](Cc2ccccc2)NC(=O)[C@H](CCCN)NC(=O)[C@H](CCC(=O)O)NC(=O)[C@H](Cc2ccc(-c3ccccc3)cc2)NC1=O` [Compound 1434] ({CH2CO}-Y(Carboxymethyl)[4Pal]DWV[Bip]E[Orn][dF][Dab][Cha]VTCA-NH2; thioether N-14) was run?
A: 35.9 nM

Q: `CC(C)[C@@H]1NC(=O)[C@H](Cc2c[nH]c3ccccc23)NC(=O)[C@H](CC(=O)O)NC(=O)[C@H](Cc2ccc(O)cc2)NC(=O)[C@H](CC(N)=O)NC(=O)CSC[C@@H](C(=O)N[C@@H](C)C(N)=O)NC(=O)[C@H]([C@@H](C)O)NC(=O)[C@H](C(C)C)NC(=O)[C@H](CC2CCCCC2)NC(=O)[C@H](CCN)NC(=O)[C@@H](Cc2ccccc2)NC(=O)[C@H](CCCN)NC(=O)[C@H](CCC(=O)O)NC(=O)[C@H](Cc2ccc(-c3ccccc3)cc2)NC1=O` [Compound 1435] ({CH2CO}-NYDWV[Bip]E[Orn][dF][Dab][Cha]VTCA-NH2; thioether N-14) was tested. Which IC50 did it give?
A: 53.1 nM

Q: With `CC(C)[C@@H]1NC(=O)[C@H](Cc2c[nH]c3ccccc23)NC(=O)[C@H](CC(=O)O)NC(=O)[C@H](Cc2ccc(OCC(=O)O)cc2)NC(=O)[C@H](CN)NC(=O)CSC[C@@H](C(=O)N[C@@H](C)C(N)=O)NC(=O)[C@H]([C@@H](C)O)NC(=O)[C@H](C(C)C)NC(=O)[C@H](CC2CCCCC2)NC(=O)[C@H](CCN)NC(=O)[C@@H](Cc2ccccc2)NC(=O)[C@H](CCCN)NC(=O)[C@H](CCC(=O)O)NC(=O)[C@H](Cc2ccc(-c3ccccc3)cc2)NC1=O` [Compound 1436] ({CH2CO}-[Dap]Y(Carboxymethyl)DWV[Bip]E[Orn][dF][Dab][Cha]VTCA-NH2; thioether N-14) as the compound, how does the IC50 read?
A: 22.8 nM

Q: Which IC50 does the source give for `Cc1cccc(C[C@@H]2NC(=O)[C@H](CC(=O)O)NC(=O)[C@H](Cc3ccc(C(=O)O)cc3)NC(=O)[C@H](Cc3ccc(OCC(=O)O)cc3)NC(=O)CSC[C@@H](C(=O)N[C@@H](C)C(N)=O)NC(=O)[C@H]([C@@H](C)O)NC(=O)[C@H](C(C)C)NC(=O)[C@H](CC3CCCCC3)NC(=O)[C@H](CCN)NC(=O)[C@@H](Cc3ccccc3)NC(=O)[C@H](CCCN)NC(=O)[C@H](CCC(=O)O)NC(=O)[C@H](Cc3ccc(-c4ccccc4)cc3)NC(=O)[C@H](C(C)C)NC2=O)c1` [Compound 1437] ({CH2CO}-Y(Carboxymethyl)[Phe(4-COOH)]D[Phe(3-Me)]V[Bip]E[Orn][dF][Dab][Cha]VTCA-NH2; thioether N-14) here?
A: 16.6 nM

Q: `CC(C)[C@@H]1NC(=O)[C@H](Cc2c[nH]c3ccccc23)NC(=O)[C@H](CC(=O)O)NC(=O)[C@H](Cc2ccc(C(=O)O)cc2)NC(=O)[C@H](Cc2ccc(OCC(=O)O)cc2)NC(=O)CSC[C@@H](C(=O)N[C@@H](C)C(N)=O)NC(=O)[C@H]([C@@H](C)O)NC(=O)[C@H](C(C)C)NC(=O)[C@H](CC2CCCCC2)NC(=O)[C@H](CCN)NC(=O)[C@@H](Cc2ccccc2)NC(=O)[C@H](CCCN)NC(=O)[C@H](CCC(=O)O)NC(=O)[C@H](Cc2ccc(-c3ccccc3)cc2)NC1=O` [Compound 1438] ({CH2CO}-Y(Carboxymethyl)[Phe(4-COOH)]DWV[Bip]E[Orn][dF][Dab][Cha]VTCA-NH2; thioether N-14) was tested. Which IC50 did it give?
A: 30.4 nM

Q: `CC(C)[C@@H]1NC(=O)[C@H](Cc2c[nH]c3ccccc23)NC(=O)[C@H](CC(=O)O)NC(=O)[C@H](Cc2ccc(C(=O)O)cc2)NC(=O)[C@H](Cc2ccncc2)NC(=O)CSC[C@@H](C(=O)N[C@@H](C)C(N)=O)NC(=O)[C@H]([C@@H](C)O)NC(=O)[C@H](C(C)C)NC(=O)[C@H](CC2CCCCC2)NC(=O)[C@H](CCN)NC(=O)[C@@H](CC2CCCCC2)NC(=O)[C@H](CCCN)NC(=O)[C@H](CCC(=O)O)NC(=O)[C@H](Cc2ccc(-c3ccccc3)cc2)NC1=O` [Compound 1439] ({CH2CO}-[4Pal][Phe(4-COOH)]DWV[Bip]E[Orn][dCha][Dab][Cha]VTCA-NH2; thioether N-14) was tested. Which IC50 did it give?
A: 5.5 nM

Q: How did the IC50 turn out when `CC(C)[C@@H]1NC(=O)[C@H](Cc2c[nH]c3ccccc23)NC(=O)[C@H](CC(=O)O)NC(=O)[C@H](Cc2ccncc2)NC(=O)[C@H](CN)NC(=O)CSC[C@@H](C(=O)N[C@@H](C)C(N)=O)NC(=O)[C@H]([C@@H](C)O)NC(=O)[C@H](C(C)C)NC(=O)[C@H](CC2CCCCC2)NC(=O)[C@H](CCN)NC(=O)[C@@H](CC2CCCCC2)NC(=O)[C@H](CCCN)NC(=O)[C@H](CCC(=O)O)NC(=O)[C@H](Cc2ccc(-c3ccccc3)cc2)NC1=O` [Compound 1440] ({CH2CO}-[Dap][4Pal]DWV[Bip]E[Orn][dCha][Dab][Cha]VTCA-NH2; thioether N-14) was run?
A: 86.8 nM

Q: With `CC(C)[C@@H]1NC(=O)[C@H](Cc2c[nH]c3ccccc23)NC(=O)[C@H](CC(=O)O)NC(=O)[C@H](Cc2ccncc2)NC(=O)[C@H](Cc2ccc(OCC(=O)O)cc2)NC(=O)CSC[C@@H](C(=O)N[C@@H](C)C(N)=O)NC(=O)[C@H]([C@@H](C)O)NC(=O)[C@H](C(C)C)NC(=O)[C@H](CC2CCCCC2)NC(=O)[C@H](CCN)NC(=O)[C@@H](CC2CCCCC2)NC(=O)[C@H](CCCN)NC(=O)[C@H](CCC(=O)O)NC(=O)[C@H](Cc2ccc(-c3ccccc3)cc2)NC1=O` [Compound 1441] ({CH2CO}-Y(Carboxymethyl)[4Pal]DWV[Bip]E[Orn][dCha][Dab][Cha]VTCA-NH2; thioether N-14) as the compound, how does the IC50 read?
A: 13.4 nM

Q: With `CC(C)[C@@H]1NC(=O)[C@H](Cc2c[nH]c3ccccc23)NC(=O)[C@H](CC(=O)O)NC(=O)[C@H](Cc2ccc(O)cc2)NC(=O)[C@H](CC(N)=O)NC(=O)CSC[C@@H](C(=O)N[C@@H](C)C(N)=O)NC(=O)[C@H]([C@@H](C)O)NC(=O)[C@H](C(C)C)NC(=O)[C@H](CC2CCCCC2)NC(=O)[C@H](CCN)NC(=O)[C@@H](CC2CCCCC2)NC(=O)[C@H](CCCN)NC(=O)[C@H](CCC(=O)O)NC(=O)[C@H](Cc2ccc(-c3ccccc3)cc2)NC1=O` [Compound 1442] ({CH2CO}-NYDWV[Bip]E[Orn][dCha][Dab][Cha]VTCA-NH2; thioether N-14) as the compound, how does the IC50 read?
A: 15.9 nM

Q: How did the IC50 turn out when `CC(C)[C@@H]1NC(=O)[C@H](Cc2c[nH]c3ccccc23)NC(=O)[C@H](CC(=O)O)NC(=O)[C@H](Cc2ccc(OCC(=O)O)cc2)NC(=O)[C@H](CN)NC(=O)CSC[C@@H](C(=O)N[C@@H](C)C(N)=O)NC(=O)[C@H]([C@@H](C)O)NC(=O)[C@H](C(C)C)NC(=O)[C@H](CC2CCCCC2)NC(=O)[C@H](CCN)NC(=O)[C@@H](CC2CCCCC2)NC(=O)[C@H](CCCN)NC(=O)[C@H](CCC(=O)O)NC(=O)[C@H](Cc2ccc(-c3ccccc3)cc2)NC1=O` [Compound 1443] ({CH2CO}-[Dap]Y(Carboxymethyl)DWV[Bip]E[Orn][dCha][Dab][Cha]VTCA-NH2; thioether N-14) was run?
A: 11.8 nM

Q: `CC(C)[C@@H]1NC(=O)[C@H](Cc2c[nH]c3ccccc23)NC(=O)[C@H](CC(=O)O)NC(=O)[C@H](Cc2ccc(C(=O)O)cc2)NC(=O)[C@H](Cc2ccc(OCC(=O)O)cc2)NC(=O)CSC[C@@H](C(=O)N[C@@H](C)C(N)=O)NC(=O)[C@H]([C@@H](C)O)NC(=O)[C@H](C(C)C)NC(=O)[C@H](CC2CCCCC2)NC(=O)[C@H](CCN)NC(=O)[C@@H](CC2CCCCC2)NC(=O)[C@H](CCCN)NC(=O)[C@H](CCC(=O)O)NC(=O)[C@H](Cc2ccc(-c3ccccc3)cc2)NC1=O` [Compound 1444] ({CH2CO}-Y(Carboxymethyl)[Phe(4-COOH)]DWV[Bip]E[Orn][dCha][Dab][Cha]VTCA-NH2; thioether N-14) was tested. Which IC50 did it give?
A: 5.7 nM

Q: How did the IC50 turn out when `CC(C)[C@@H]1NC(=O)[C@H](Cc2c[nH]c3ccccc23)NC(=O)[C@H](CC(=O)O)NC(=O)[C@H](Cc2ccc(C(=O)O)cc2)NC(=O)[C@H](Cc2ccncc2)NC(=O)CSC[C@@H](C(=O)N[C@@H](C)C(N)=O)NC(=O)[C@H]([C@@H](C)O)NC(=O)[C@H](C(C)C)NC(=O)[C@H](CC2CCCCC2)NC(=O)[C@H](CCN)NC(=O)[C@@H](Cc2ccc(O)cc2)NC(=O)[C@H](CCCN)NC(=O)[C@H](CCC(=O)O)NC(=O)[C@H](Cc2ccc(-c3ccccc3)cc2)NC1=O` [Compound 1445] ({CH2CO}-[4Pal][Phe(4-COOH)]DWV[Bip]E[Orn][dY][Dab][Cha]VTCA-NH2; thioether N-14) was run?
A: 19.5 nM

Q: With `CC(C)[C@@H]1NC(=O)[C@H](Cc2c[nH]c3ccccc23)NC(=O)[C@H](CC(=O)O)NC(=O)[C@H](Cc2ccncc2)NC(=O)[C@H](CN)NC(=O)CSC[C@@H](C(=O)N[C@@H](C)C(N)=O)NC(=O)[C@H]([C@@H](C)O)NC(=O)[C@H](C(C)C)NC(=O)[C@H](CC2CCCCC2)NC(=O)[C@H](CCN)NC(=O)[C@@H](Cc2ccc(O)cc2)NC(=O)[C@H](CCCN)NC(=O)[C@H](CCC(=O)O)NC(=O)[C@H](Cc2ccc(-c3ccccc3)cc2)NC1=O` [Compound 1446] ({CH2CO}-[Dap][4Pal]DWV[Bip]E[Orn][dY][Dab][Cha]VTCA-NH2; thioether N-14) as the compound, how does the IC50 read?
A: 64.5 nM

Q: With `CC(C)[C@@H]1NC(=O)[C@H](Cc2c[nH]c3ccccc23)NC(=O)[C@H](CC(=O)O)NC(=O)[C@H](Cc2ccncc2)NC(=O)[C@H](Cc2ccc(OCC(=O)O)cc2)NC(=O)CSC[C@@H](C(=O)N[C@@H](C)C(N)=O)NC(=O)[C@H]([C@@H](C)O)NC(=O)[C@H](C(C)C)NC(=O)[C@H](CC2CCCCC2)NC(=O)[C@H](CCN)NC(=O)[C@@H](Cc2ccc(O)cc2)NC(=O)[C@H](CCCN)NC(=O)[C@H](CCC(=O)O)NC(=O)[C@H](Cc2ccc(-c3ccccc3)cc2)NC1=O` [Compound 1447] ({CH2CO}-Y(Carboxymethyl)[4Pal]DWV[Bip]E[Orn][dY][Dab][Cha]VTCA-NH2; thioether N-14) as the compound, how does the IC50 read?
A: 29.8 nM
